Like-named read-outs stand apart in the source and are kept apart here.
Key:
[1] = system: P. falciparum stage V female gametocytes; experiment: P. falciparum female gametocyte activation assay (Pf FGAA), 24 h or 48 h preincubation, Pfs25 expression readout; type: cell-based, Plasmodium falciparum NF54; settings: for Pf FGAA classification: SLOW / FAST / GAMETE from activity at 48h, 24h, 0h incubation
Method in brief: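 Purified stage V gametocytes from P. falciparum NF54 gametocyte cultures were exposed to compounds for 24 h or 48 h at 37 °C under 3% O2/5% CO2, then activated by temperature drop plus xanthurenic acid. Activated females were stained with Cy3-anti-Pfs25 (0.5 μg ml^−1) for 24 h at 26 °C and counted by high-content imaging; pIC50 by nonlinear regression.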

[2] = system: P. falciparum female gametes; experiment: Pf FGAA with compounds added 30 min after triggering gametocyte activation (gamete-targeting); type: cell-based, Plasmodium falciparum NF54; settings: 0h incubation time
[3] = system: P. falciparum stages IV–V gametocytes; experiment: Gametocytocidal ATP-depletion assay (gametocyte ATP bioluminescence); type: cell-based, Plasmodium falciparum; settings: for inhibition at 2 µM: Plasmodium falciparum, mean
Method in brief: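 Purified stage IV–V gametocytes (12,500/well) incubated with compound for 48 h at 37 °C under 3% O2/5% CO2. ATP measured by BacTiter-Glo luminescence as a viability surrogate; hits tested at 2 μM single concentration.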

HepG2 cells = experiment: HepG2 cytotoxicity assay; type: cell-based
Method in brief: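 Steps: equilibrate plates and detection reagent at room temperature (30 min); dispense CellTiter-Glo; allow 10 min at room temperature; record luminescence.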

[4] = system: P. falciparum asexual blood stages; settings: cited from earlier work; for IC50: read-out: Pf Asexual blood stages XC50
[5] = 24h incubation time, read-out: Pf FGAA IC50 (µM) 24h
[6] = mean, read-out: Gametocytes mean Pf FGAA IC50
[7] = TCAMS data, ref 1 (Gamo et al., 2010)
[8] = TCAMS data, ref 1 (Gamo, F. J. et al., Nature 465, 305-310, 2010)
[9] = TCAMS asexual blood stage data, ref 1 (Gamo, F. J. et al., Nature 465, 305-310, 2010)
[10] = Plasmodium falciparum, 24h incubation time, read-out: Pf FGAA IC50 (µM) 24h
[11] = Plasmodium falciparum, P. falciparum female gametocytes, mean, read-out: Gametocytes mean Pf FGAA IC50
[12] = HepG2 TOX50 versus Pf FGAA IC50
[13] = P. falciparum female gametocytes, mean, read-out: Gametocytes mean Pf FGAA IC50

IC50 [1, 5] [µM] | IC50 [1, 6] [µM] | IC50 [2] [µM] | IC50 [1, 13] [µM] | SMILES | Pf FGAA classification [1] | Gametocytes mean ATP inhibition at 2µM (%) [3] [%] | HepG2 cells mean TOX50 (HepG2 cells; mean) [µM] | IC50 [4, 7] [nM] | Pf Asexual stages XC50 [4, 8] [nM] | Gametocytes mean ATP inhibition at 2µM [3] [%] | IC50 [4, 9] [nM] | HepG2 cells mean TOX50 (HepG2 cells; HepG2 cells; mean) [µM] | further results
1.88 | 0.91 | 13.5 |  | COC(=O)c1ccc(-c2ccc(C(=O)NCC3CCN(c4nc(N)c5cc(OC)c(OC)cc5n4)CC3)cc2)cc1 [TCMDC-138721] | FAST | 31.66 | 6.10 | 190 | 190 |  |  |  | 
2.58 | 0.82 | 2.27 |  | CN(C)CCNCc1cccc(-c2ccc3c(Nc4ccc(Oc5ccccn5)cc4)ccnc3c2)c1 [TCMDC-138493] | GAMETE | 38.43 | 3.98 | 230 | 230 |  |  |  | 
2.41 |  | > 20 | 3.14 | CC(C)(C)OC(=O)NCc1ccc(Nc2nnc(-c3cccc(C(=O)NCc4cc(C(F)(F)F)cc(C(F)(F)F)c4)c3)o2)cc1 [TCMDC-135229] | SLOW |  |  |  | 870 | -6.34 | 870 | 21.43 | 
1.57 |  | > 20 | 1.87 | CNCCCNCc1ccc(-c2ccc(F)c(Cl)c2)o1.Cl [TCMDC-125237] | FAST |  |  |  | 750 | -1.51 | 750 | 10.60 | 

Continued, compound first:

SMILES | IC50 [1, 5] [µM] | IC50 [1, 6] [µM] | IC50 [2] [µM] | IC50 [1, 13] [µM] | Pf FGAA classification [1] | Gametocytes mean ATP inhibition at 2µM (%) [3] [%] | HepG2 cells mean TOX50 (HepG2 cells; mean) [µM] | IC50 [4, 7] [nM] | Pf Asexual stages XC50 [4, 8] [nM] | Gametocytes mean ATP inhibition at 2µM [3] [%] | IC50 [4, 9] [nM] | HepG2 cells mean TOX50 (HepG2 cells; HepG2 cells; mean) [µM] | further results
CCN1CCC2(c3cccc(OC)c3)Cc3nc4ccccc4c(-c4ccccc4)c3CC2C1 (centres unmarked) [TCMDC-138968] | > 20 | 1.43 | > 20 |  | SLOW | 21.53 | 33.25 | 350 | 790 |  |  |  | 
CN(C)CCN1CCN(CCCN2c3ccccc3Sc3ccc(C(F)(F)F)cc32)CC1.Cl [TCMDC-142257] | 1.58 |  | > 20 |  | FAST |  |  |  | 760 | 23.41 | 760 |  | IC50 ([1]; mean, P. falciparum female gametocyte activation assay, read-out: Gametocytes mean Pf FGAA IC50): 5.25 µM; HepG2 cells mean TOX50 (HepG2 cells; mean; HepG2 cells): 77.62 µM
CN1CCC=C(C(=O)NCC(C)(C)c2nc(-c3ccc(Cl)c(O)c3)c(-c3ccncc3)[nH]2)C1.Cl [TCMDC-140700] | 4.68 | 1.91 | 1.61 |  | GAMETE | -6.01 | 13.36 | 1000 | 1000 |  |  |  | 
O=C(Nc1ccc([N+](=O)[O-])cc1)Nc1cc(OCC(F)(F)F)cc(OCC(F)(F)F)c1 [TCMDC-124533] |  |  |  |  | SLOW |  |  |  | 470 |  | 470 | 6.24 | IC50 [1, 10]: 2.32 µM; IC50 [1, 11]: 1.16 µM; IC50 ([2]; Plasmodium falciparum): 5.64 µM; inhibition at 2 µM [3]: -45.2%; Selectivity ratio (HepG2 cells; [12]): 5.40
CCn1c(-c2nonc2N)nc2c(-c3cccc(NC(=O)Nc4ccc5c(c4)CCC5)c3)ncc(OCCCN)c21.O=C(O)C(F)(F)F [TCMDC-136191] | 6.46 | 1.03 | > 20 |  | SLOW | -19.55 | 7.42 | 780 | 780 |  |  |  | 
CN(C)CCCNCc1ccc(-c2ccc(C(F)(F)F)cc2)cc1 [TCMDC-140011] |  |  |  |  | FAST |  | 4.90 | 870 | 870 |  |  |  | IC50 [1, 10]: 1.87 µM; IC50 ([1]; Plasmodium falciparum, mean, read-out: Gametocytes mean Pf FGAA IC50): 1.68 µM; IC50 ([2]; Plasmodium falciparum): > 20 µM; inhibition at 2 µM [3]: 1.03%; Selectivity ratio (HepG2 cells; HepG2 TOX50 vs Pf FGAA IC50): 2.92
O=C(c1ccc([N+](=O)[O-])o1)N1CCN(c2nc3c(F)cc(F)cc3s2)CC1 [TCMDC-125149] | 1.25 |  | > 20 | 1.31 | FAST |  |  |  | 970 | 5.52 | 970 | >100 | HepG2 cells TOX50 (HepG2 cells; HepG2 cells): >100 µM
NC1CCN(CCc2ccc(NS(=O)(=O)c3ccc(-c4ccccc4)cc3)cc2)CC1 [TCMDC-134085] |  |  |  |  | FAST |  |  |  | 1020 |  | 1020 | 7.17 | IC50 [1, 10]: 1.98 µM; IC50 [1, 11]: 0.75 µM; IC50 ([2]; Plasmodium falciparum): > 20 µM; inhibition at 2 µM [3]: -6.2%; Selectivity ratio (HepG2 cells; [12]): 9.58
Cc1ccc(Cl)c2sc(N3CCN(C(=O)c4ccc([N+](=O)[O-])o4)CC3)nc12 [TCMDC-124311] | 1.5 |  | > 20 | 1.44 | FAST |  |  |  | 320 | -39.73 | 320 | 25.79 | 
CN1CCC(N2CCC(Oc3cccc(C(=O)NCCCC4CCCC4)c3)CC2)CC1 [TCMDC-124677] |  |  |  |  | SLOW |  |  |  | 230 |  | 840 | 4.90 | IC50 [1, 10]: 3.87 µM; IC50 [1, 11]: 1.47 µM; IC50 ([2]; Plasmodium falciparum): > 20 µM; inhibition at 2 µM [3]: -0.79%; Selectivity ratio (HepG2 cells; [12]): 3.34
CN(C)c1ccc(-c2csc(C(=O)NCC3CCN(Cc4cccc(C(F)(F)F)c4)C3)c2)cc1.O=C(O)C(F)(F)F (centres unmarked) [TCMDC-134486] | 2.56 |  | > 20 | 1.56 | SLOW |  |  |  | 840 | -14.11 | 840 | 8.18 | 
Nc1ccc2[nH]cc(C3CCN(CC4CCC(NC(=O)/C=C/c5ccc(Cl)c(Cl)c5)CC4)CC3)c2n1 (centres unmarked) [TCMDC-140064] | 6.18 | 0.69 | > 20 |  | SLOW | -8.60 | 12.59 | 730 | 730 |  |  |  | 
C=CCc1cccc(CN2CCC(c3cc(O)nc(-c4ccccn4)n3)CC2)c1O [TCMDC-124851] |  |  |  |  | FAST |  |  |  | 1000 |  | 1100 | 11.49 | IC50 [1, 10]: 0.71 µM; IC50 [1, 11]: 1.74 µM; IC50 ([2]; Plasmodium falciparum): 2.42 µM; inhibition at 2 µM [3]: 17.9%; Selectivity ratio (HepG2 cells; [12]): 6.59
Cc1cccc2nc(-c3ccc(-c4ccc(CNCc5ccc(CN)cc5)cc4)s3)[nH]c12.O=C(O)C(F)(F)F [TCMDC-132809] | 1.17 |  | 5.14 | 0.47 | FAST |  |  |  | 440 | 36.48 | 440 | 14.79 | 
Cc1cccc2nc(-c3ccc(-c4ccc(CNCc5ccc(CN)cc5)cc4)cc3)[nH]c12.O=C(O)C(F)(F)F [TCMDC-132813] | 0.21 |  | 4.35 | 2.16 | FAST |  |  |  | 720 | 13.49 | 720 | 18.09 | 

Source: paper PMC5442318, “Hundreds of dual-stage antimalarial molecules discovered by a functional gametocyte screen” (Nature Communications, 2017)
